In this test the target is MDM2 (Homo sapiens, UniProt Q00987). Nature of the test: MDM2 binding screen of Libraries 3 and 4: displacement of fluorescent probe F-M8 at 750 nM macrocycle. The note with it: Panel b, Library 3: 63 scaffolds combinatorially acylated with 15 carboxylic acids at 30 picomole scale; displacement of fluorescent peptide probe; macrocycle 750 nM. The gist of the method:
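Cyclic peptide scaffolds were acylated in DMSO with carboxylic acids (20 equiv.), HBTU and DABCO for 6 h at room temperature. Reactions were quenched overnight in 100 mM Tris-Cl pH 7.4, 0.01% Tween20. The fluorescein conjugate was also competed with nutlin-3a.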
MDM2, sequence (Q00987 whole entry): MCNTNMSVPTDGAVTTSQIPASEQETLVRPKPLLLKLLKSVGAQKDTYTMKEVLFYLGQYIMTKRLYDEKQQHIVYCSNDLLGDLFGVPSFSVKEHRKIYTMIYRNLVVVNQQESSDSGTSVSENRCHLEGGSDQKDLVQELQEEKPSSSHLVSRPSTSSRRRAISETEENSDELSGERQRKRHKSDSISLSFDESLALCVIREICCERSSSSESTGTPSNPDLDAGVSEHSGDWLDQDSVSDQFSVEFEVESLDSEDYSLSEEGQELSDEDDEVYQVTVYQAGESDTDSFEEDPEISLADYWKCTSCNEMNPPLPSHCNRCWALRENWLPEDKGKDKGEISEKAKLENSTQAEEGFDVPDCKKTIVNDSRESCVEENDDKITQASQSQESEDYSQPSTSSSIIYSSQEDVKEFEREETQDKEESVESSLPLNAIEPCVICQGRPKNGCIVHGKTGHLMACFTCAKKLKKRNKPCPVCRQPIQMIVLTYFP
Take `CN1C(=O)CN(CCNC(=O)c2ccc(Cl)s2)C(=O)[C@@H]2CN(CCO2)C(=O)CCSSCCNC(=O)[C@@H]1Cc1c[nH]c2ccccc12` [X-Cop-N-Aeg-NMe-Trp + Acid 14]: the “fraction of fluorescent probe displaced” value is -0.025.

`CN1C(=O)CN(CCNC(=O)c2ccc(Cl)cc2)C(=O)C2CN(CCO2)C(=O)CCSSCCNC(=O)C1Cc1c[nH]c2ccccc12` (stereo not shown) [X-Cop-N-Aeg-NMe-Trp + Acid 25]: the “fraction of fluorescent probe displaced” value came to 0.021.

Regarding `CN1C(=O)CN(CCNC(=O)/C=C/c2ccc3ccccc3c2)C(=O)[C@@H]2CN(CCO2)C(=O)CCSSCCNC(=O)[C@@H]1Cc1c[nH]c2ccccc12` [X-Cop-N-Aeg-NMe-Trp + Acid 112], the “fraction of fluorescent probe displaced” value is 0.015.

`O=C1CN(CCNC(=O)c2ccc(Cl)cc2)C(=O)C2CN(CCO2)C(=O)CCSSCCNC(=O)C(Cc2c[nH]c3ccccc23)N1` (stereo not shown) [X-Cop-N-Aeg-Trp + Acid 25]: the “fraction of fluorescent probe displaced” value is 0.055.

Consider `O=C1CN(CCNC(=O)c2ccc3ccccc3c2)C(=O)[C@@H]2CN(CCO2)C(=O)CCSSCCNC(=O)[C@H](Cc2c[nH]c3ccccc23)N1` [X-Cop-N-Aeg-Trp + Acid 107], for which the “fraction of fluorescent probe displaced” value is given as 0.00455.

In the case of `O=C(/C=C/c1ccc(OCc2ccccc2)cc1)NCCN1CC(=O)N[C@@H](Cc2c[nH]c3ccccc23)C(=O)NCCSSCCC(=O)N2CCO[C@@H](C2)C1=O` [X-Cop-N-Aeg-Trp + Acid 110], the “fraction of fluorescent probe displaced” value is given as 0.015.

For the molecule `O=C(/C=C/c1ccc2ccccc2c1)NCCN1CC(=O)N[C@@H](Cc2c[nH]c3ccccc23)C(=O)NCCSSCCC(=O)N2CCO[C@@H](C2)C1=O` [X-Cop-N-Aeg-Trp + Acid 112], the “fraction of fluorescent probe displaced” value was determined as 0.028.

As to `O=C1CN(CCNC(=O)C2COc3ccccc3O2)C(=O)[C@@H]2CN(CCO2)C(=O)CCSSCCNC(=O)[C@H](Cc2c[nH]c3ccccc23)N1` (stereo partly shown) [X-Cop-N-Aeg-Trp + Acid 115], the “fraction of fluorescent probe displaced” value is reported as -0.012.

For `O=C(NC[C@H]1NC(=O)[C@H]2CCCN(C2)C(=O)CCSSCCNC(=O)[C@H](Cc2cccc3ccccc23)NC1=O)c1ccc(Cl)s1` [X-Nip-D-Dap-1-NaI + Acid 14], the “fraction of fluorescent probe displaced” value is -0.019.

As to `O=C(NC[C@H]1NC(=O)[C@H]2CCCN(C2)C(=O)CCSSCCNC(=O)[C@H](Cc2cccc3ccccc23)NC1=O)c1ccc(Cl)cc1` [X-Nip-D-Dap-1-NaI + Acid 25], the “fraction of fluorescent probe displaced” value was 0.015.

On to `O=C(NC[C@H]1NC(=O)[C@H]2CCCN(C2)C(=O)CCSSCCNC(=O)[C@H](Cc2cccc3ccccc23)NC1=O)c1ccc2ccccc2c1` [X-Nip-D-Dap-1-NaI + Acid 107], for which the “fraction of fluorescent probe displaced” value was 0.00455.

For `O=C(/C=C/c1ccc2ccccc2c1)NC[C@H]1NC(=O)[C@H]2CCCN(C2)C(=O)CCSSCCNC(=O)[C@H](Cc2cccc3ccccc23)NC1=O` [X-Nip-D-Dap-1-NaI + Acid 112], the “fraction of fluorescent probe displaced” value was found to be 0.021.

For the molecule `CC(Oc1cccc(Cl)c1)C(=O)NC[C@H]1NC(=O)[C@H]2CCCN(C2)C(=O)CCSSCCNC(=O)[C@H](Cc2cccc3ccccc23)NC1=O` (stereo partly drawn) [X-Nip-D-Dap-1-NaI + Acid 113], the “fraction of fluorescent probe displaced” value is reported as 0.00133.

Consider `O=C(CCS(=O)(=O)c1ccccc1)NC[C@H]1NC(=O)[C@H]2CCCN(C2)C(=O)CCSSCCNC(=O)[C@H](Cc2cccc3ccccc23)NC1=O` [X-Nip-D-Dap-1-NaI + Acid 114], for which the “fraction of fluorescent probe displaced” value is listed as -0.00533.

In the case of `O=C(NC[C@H]1NC(=O)[C@H]2CCCN(C2)C(=O)CCSSCCNC(=O)[C@H](Cc2cccc3ccccc23)NC1=O)C1COc2ccccc2O1` (stereo partly drawn) [X-Nip-D-Dap-1-NaI + Acid 115], the “fraction of fluorescent probe displaced” value is recorded as 0.021.

In the case of `O=C(/C=C/c1ccc(Cl)cc1)NC[C@H]1NC(=O)[C@H]2CCCN(C2)C(=O)CCSSCCNC(=O)[C@H](Cc2ccc3ccccc3c2)NC1=O` [X-Nip-D-Dap-2-Nal + Acid 108], the “fraction of fluorescent probe displaced” value turned out to be 0.021.

Regarding `O=C(/C=C/c1ccc(OCc2ccccc2)cc1)NC[C@H]1NC(=O)[C@H]2CCCN(C2)C(=O)CCSSCCNC(=O)[C@H](Cc2ccc3ccccc3c2)NC1=O` [X-Nip-D-Dap-2-Nal + Acid 110], the “fraction of fluorescent probe displaced” value is 0.008.

On to `O=C(NC[C@H]1NC(=O)[C@H]2CCCN(C2)C(=O)CCSSCCNC(=O)[C@H](Cc2ccc3ccccc3c2)NC1=O)c1cccc(Oc2ccccc2)c1` [X-Nip-D-Dap-2-Nal + Acid 111], for which the “fraction of fluorescent probe displaced” value is given as 0.00133.

Take `O=C(/C=C/c1ccc2ccccc2c1)NC[C@H]1NC(=O)[C@H]2CCCN(C2)C(=O)CCSSCCNC(=O)[C@H](Cc2ccc3ccccc3c2)NC1=O` [X-Nip-D-Dap-2-Nal + Acid 112]: the “fraction of fluorescent probe displaced” value is reported as 0.008.

In the case of `O=C(CCS(=O)(=O)c1ccccc1)NC[C@H]1NC(=O)[C@H]2CCCN(C2)C(=O)CCSSCCNC(=O)[C@H](Cc2ccc3ccccc3c2)NC1=O` [X-Nip-D-Dap-2-Nal + Acid 114], the “fraction of fluorescent probe displaced” value amounted to 0.048.

For `O=C(NC[C@H]1NC(=O)[C@H]2CCCN(C2)C(=O)CCSSCCNC(=O)[C@H](Cc2c[nH]c3cc(Cl)ccc23)NC1=O)c1ccc(Cl)cc1` [X-Nip-D-Dap-Cl-Trp + Acid 25], the “fraction of fluorescent probe displaced” value worked out at 0.041.

In the case of `O=C(/C=C/c1ccncc1)NC[C@H]1NC(=O)[C@H]2CCCN(C2)C(=O)CCSSCCNC(=O)[C@H](Cc2c[nH]c3cc(Cl)ccc23)NC1=O` [X-Nip-D-Dap-Cl-Trp + Acid 106], the “fraction of fluorescent probe displaced” value stood at 0.018.

As for `O=C(NC[C@H]1NC(=O)[C@H]2CCCN(C2)C(=O)CCSSCCNC(=O)[C@H](Cc2c[nH]c3cc(Cl)ccc23)NC1=O)c1ccc2ccccc2c1` [X-Nip-D-Dap-Cl-Trp + Acid 107], the “fraction of fluorescent probe displaced” value is reported as 0.024.

For the molecule `O=C(/C=C/c1ccc(Cl)cc1)NC[C@H]1NC(=O)[C@H]2CCCN(C2)C(=O)CCSSCCNC(=O)[C@H](Cc2c[nH]c3cc(Cl)ccc23)NC1=O` [X-Nip-D-Dap-Cl-Trp + Acid 108], the “fraction of fluorescent probe displaced” value was 0.00133.

As for `O=C(/C=C/c1ccc(OCc2ccccc2)cc1)NC[C@H]1NC(=O)[C@H]2CCCN(C2)C(=O)CCSSCCNC(=O)[C@H](Cc2c[nH]c3cc(Cl)ccc23)NC1=O` [X-Nip-D-Dap-Cl-Trp + Acid 110], the “fraction of fluorescent probe displaced” value is reported as 0.008.

On to `O=C(/C=C/c1ccc2ccccc2c1)NC[C@H]1NC(=O)[C@H]2CCCN(C2)C(=O)CCSSCCNC(=O)[C@H](Cc2c[nH]c3cc(Cl)ccc23)NC1=O` [X-Nip-D-Dap-Cl-Trp + Acid 112], for which the “fraction of fluorescent probe displaced” value was -0.00533.

For `CC(Oc1cccc(Cl)c1)C(=O)NC[C@H]1NC(=O)[C@H]2CCCN(C2)C(=O)CCSSCCNC(=O)[C@H](Cc2c[nH]c3cc(Cl)ccc23)NC1=O` (stereo partly drawn) [X-Nip-D-Dap-Cl-Trp + Acid 113], the “fraction of fluorescent probe displaced” value was -0.00533.

For the molecule `O=C(CCS(=O)(=O)c1ccccc1)NC[C@H]1NC(=O)[C@H]2CCCN(C2)C(=O)CCSSCCNC(=O)[C@H](Cc2c[nH]c3cc(Cl)ccc23)NC1=O` [X-Nip-D-Dap-Cl-Trp + Acid 114], the “fraction of fluorescent probe displaced” value was found to be 0.015.

With `O=C(NC[C@H]1NC(=O)[C@H]2CCCN(C2)C(=O)CCSSCCNC(=O)[C@H](Cc2c[nH]c3cc(Cl)ccc23)NC1=O)C1COc2ccccc2O1` (stereo partly drawn) [X-Nip-D-Dap-Cl-Trp + Acid 115], the “fraction of fluorescent probe displaced” value is recorded as -0.012.

As for `O=C(NC[C@H]1NC(=O)[C@H]2CCCN(C2)C(=O)CCSSCCNC(=O)[C@@H](Cc2c[nH]c3ccccc23)NC1=O)c1ccc(Cl)s1` [X-Nip-D-Dap-D-Trp + Acid 14], the “fraction of fluorescent probe displaced” value is recorded as -0.00533.

For `O=C(NC[C@H]1NC(=O)[C@H]2CCCN(C2)C(=O)CCSSCCNC(=O)[C@@H](Cc2c[nH]c3ccccc23)NC1=O)c1ccc(Cl)cc1` [X-Nip-D-Dap-D-Trp + Acid 25], the “fraction of fluorescent probe displaced” value is on record as 0.00133.

As to `O=C(NC[C@H]1NC(=O)[C@H]2CCCN(C2)C(=O)CCSSCCNC(=O)[C@@H](Cc2c[nH]c3ccccc23)NC1=O)c1ccc2ccccc2c1` [X-Nip-D-Dap-D-Trp + Acid 107], the “fraction of fluorescent probe displaced” value was 0.050.

Regarding `O=C(/C=C/c1ccc(OCc2ccccc2)cc1)NC[C@H]1NC(=O)[C@H]2CCCN(C2)C(=O)CCSSCCNC(=O)[C@@H](Cc2c[nH]c3ccccc23)NC1=O` [X-Nip-D-Dap-D-Trp + Acid 110], the “fraction of fluorescent probe displaced” value is reported as -0.012.

Regarding `O=C(/C=C/c1ccc2ccccc2c1)NC[C@H]1NC(=O)[C@H]2CCCN(C2)C(=O)CCSSCCNC(=O)[C@@H](Cc2c[nH]c3ccccc23)NC1=O` [X-Nip-D-Dap-D-Trp + Acid 112], the “fraction of fluorescent probe displaced” value is listed as 0.075.

As to `O=C(CCS(=O)(=O)c1ccccc1)NC[C@H]1NC(=O)[C@H]2CCCN(C2)C(=O)CCSSCCNC(=O)[C@@H](Cc2c[nH]c3ccccc23)NC1=O` [X-Nip-D-Dap-D-Trp + Acid 114], the “fraction of fluorescent probe displaced” value was found to be 0.021.

As to `Cn1cc(C[C@@H]2NC(=O)[C@@H](CNC(=O)c3ccc(Cl)s3)NC(=O)[C@H]3CCCN(C3)C(=O)CCSSCCNC2=O)c2ccccc21` [X-Nip-D-Dap-Me-Trp + Acid 14], the “fraction of fluorescent probe displaced” value was 0.008.

Take `Cn1cc(C[C@@H]2NC(=O)[C@@H](CNC(=O)c3ccc(Cl)cc3)NC(=O)[C@H]3CCCN(C3)C(=O)CCSSCCNC2=O)c2ccccc21` [X-Nip-D-Dap-Me-Trp + Acid 25]: the “fraction of fluorescent probe displaced” value is recorded as -0.00533.

As for `Cn1cc(C[C@@H]2NC(=O)[C@@H](CNC(=O)/C=C/c3ccc(Cl)cc3)NC(=O)[C@H]3CCCN(C3)C(=O)CCSSCCNC2=O)c2ccccc21` [X-Nip-D-Dap-Me-Trp + Acid 108], the “fraction of fluorescent probe displaced” value is given as 0.015.

For `Cn1cc(C[C@@H]2NC(=O)[C@@H](CNC(=O)/C=C/c3ccc(OCc4ccccc4)cc3)NC(=O)[C@H]3CCCN(C3)C(=O)CCSSCCNC2=O)c2ccccc21` [X-Nip-D-Dap-Me-Trp + Acid 110], the “fraction of fluorescent probe displaced” value is reported as 0.008.

As to `Cn1cc(C[C@@H]2NC(=O)[C@@H](CNC(=O)c3cccc(Oc4ccccc4)c3)NC(=O)[C@H]3CCCN(C3)C(=O)CCSSCCNC2=O)c2ccccc21` [X-Nip-D-Dap-Me-Trp + Acid 111], the “fraction of fluorescent probe displaced” value is 0.048.

For the origin of these results see article PMC9250534, “Synthesis and direct assay of large macrocycle diversities by combinatorial late-stage modification at picomole scale” (Nature Communications, 2022).
